Laboratory results as given in ChEMBL document CHEMBL3351937, “Potential C-terminal-domain inhibitors of heat shock protein 90 derived from a C-terminal peptide helix” (Bioorg Med Chem, 2014).
pIC50: −log10 of the molar value. Calls of active or inactive are those of the source. No cut-off for these calls is given here. Bridge positions count the residues as written; N and C are the ends. Square brackets hold non-standard residues; d marks the D form. Peptide text beside a SMILES is read from it. * marks the point of attachment. 5FAM = O=C1OC2(c3ccc(O)cc3Oc3cc(O)ccc32)c2ccc(C(=O)*)cc21; S5 = C=CCCC[C@](C)(N)C(=O)O

Tests used:
[1] = Cytotoxicity against human MDA-kb2 cells assessed as reduction in cell viability after 18 hrs by Promega cell titer-Glo assay; format: functional; conditions: MDA-kb2, 18 h, read-out: LC50 (the source's name)
[2] = molecular target: T1, Heat shock protein HSP 90-beta (Homo sapiens, UniProt P08238); assay: Inhibition of HSP90 in human MDA-kb2 cells assessed as reduction in glucocorticoid receptor-dependent luciferase expression after 18 hrs by firefly luciferase reporter gene assay; format: cell-based
T1 sequence (P08238 whole entry): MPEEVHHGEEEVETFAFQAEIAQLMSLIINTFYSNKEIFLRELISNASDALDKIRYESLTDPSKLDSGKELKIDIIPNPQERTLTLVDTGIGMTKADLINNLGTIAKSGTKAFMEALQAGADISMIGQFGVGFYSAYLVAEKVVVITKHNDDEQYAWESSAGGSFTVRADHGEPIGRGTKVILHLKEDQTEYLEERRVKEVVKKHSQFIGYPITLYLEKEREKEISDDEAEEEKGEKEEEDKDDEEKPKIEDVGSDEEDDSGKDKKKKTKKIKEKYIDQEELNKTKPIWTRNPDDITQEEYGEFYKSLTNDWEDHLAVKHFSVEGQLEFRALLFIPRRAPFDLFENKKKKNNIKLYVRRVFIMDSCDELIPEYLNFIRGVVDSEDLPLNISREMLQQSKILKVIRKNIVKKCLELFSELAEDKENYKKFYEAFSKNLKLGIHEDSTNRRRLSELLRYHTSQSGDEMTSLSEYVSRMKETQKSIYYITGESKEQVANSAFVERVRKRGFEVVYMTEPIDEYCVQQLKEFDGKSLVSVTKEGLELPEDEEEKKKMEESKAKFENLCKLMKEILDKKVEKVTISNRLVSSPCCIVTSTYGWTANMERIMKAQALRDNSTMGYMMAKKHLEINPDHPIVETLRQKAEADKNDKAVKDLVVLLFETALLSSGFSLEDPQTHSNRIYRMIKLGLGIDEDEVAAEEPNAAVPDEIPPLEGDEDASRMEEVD

[3] = molecular target: T2, Heat shock protein HSP 90 (Oryctolagus cuniculus, UniProt P11500); assay: Inhibition of HSP90 in rabbit reticulocyte lysate after 90 mins by luciferase renaturation assay
T2 sequence (P11500 whole entry): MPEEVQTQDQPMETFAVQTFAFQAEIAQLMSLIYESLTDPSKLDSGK

[4] = molecular target: T3, Heat shock protein HSP 90 (Oryctolagus cuniculus) (UniProt P11500); assay: Inhibition of HSP90 in rabbit reticulocyte lysate at 250 uM after 90 mins by luciferase renaturation assay
T3 sequence (whole entry): T2 sequence (P11500 whole entry)

[5] = Solubility in phosphate buffer; format: physicochemical
MDA-kb2 = assay: Induction of plasma membrane disruption in human MDA-kb2 cells; format: functional, cell-based
[6] = molecular target: T1, Heat shock protein HSP 90-beta; assay: Binding affinity to human HSP90 using FAM-labeled compound by fluorescence polarization assay
[7] = molecular target: T1, Heat shock protein HSP 90-beta; assay: Binding affinity to human HSP90 using FITC-labeled compound at 1 nM by fluorescence polarization assay

CO[C@H]1[C@H](OC(=O)c2ccc(C)[nH]2)[C@H](O)[C@@H](Oc2ccc3c(O)c(NC(=O)c4c[nH]c(C(=O)Nc5c(O)c6ccc(O[C@H]7OC(C)(C)[C@@H](OC)[C@H](OC(=O)c8ccc(C)[nH]8)[C@@H]7O)c(C)c6oc5=O)c4C)c(=O)oc3c2C)OC1(C)C [COUMERMYCIN A1]
CC50 [1]: 19.1 µM | pIC50 [2]: 4.82 | pIC50 [3]: 4.55

Ac-DPFTHANRIYRMIKLGLG-NH2
inhibition [4]: Active

CSCC[C@@H]1NC(=O)[C@H](CCCNC(=N)N)NC(=O)[C@H](Cc2ccc(O)cc2)NC(=O)[C@@H](NC(=O)[C@H](CCCNC(=N)N)NC(=O)[C@H](CC(N)=O)NC(=O)[C@H](C)NC(=O)[C@H](Cc2cnc[nH]2)NC(=O)[C@@H](NC(=O)[C@H](CCC(N)=O)NC(=O)[C@@H]2CCCN2C(=O)[C@H](CC(=O)O)NC(C)=O)[C@@H](C)O)CCCCNC(=O)C[C@@H](C(=O)N[C@@H](CCCCN)C(=O)N[C@@H](CC(C)C)C(=O)NCC(=O)N[C@@H](CC(C)C)C(=O)NCC(N)=O)NC1=O (Ac-DPQTHANRKYRMDKLGLG-NH2; lactam 9-13)
solubility [5]: ≥ 100 µM | CC50 [1]: > 120 µM | pIC50 [2]: < 3.92 | pIC50 [3]: 3.77

CC[C@H](C)[C@H](NC(=O)[C@H](CCCNC(=N)N)NC(=O)[C@H](CC(N)=O)NC(=O)[C@H](C)NC(=O)[C@H](Cc1cnc[nH]1)NC(=O)[C@@H](NC(=O)[C@H](CCC(N)=O)NC(=O)[C@@H]1CCCN1C(=O)[C@H](CC(=O)O)NC(C)=O)[C@@H](C)O)C(=O)N[C@@H](Cc1ccc(O)cc1)C(=O)N[C@@H](CCCNC(=N)N)C(=O)N[C@@H](CCSC)C(=O)N[C@H](C(=O)N[C@H]1CCCCNC(=O)C[C@@H](C(=O)O)NC(=O)[C@H](CC(C)C)NC(=O)CNC(=O)[C@H](CC(C)C)NC1=O)[C@@H](C)CC (Ac-DPQTHANRIYRMIKLGLD-OH; lactam 14-18)
solubility [5]: ≥ 100 µM | CC50 [1]: 97 µM | pIC50 [2]: 3.92 | pIC50 [3]: 4.43

CO[C@@H]1[C@@H](OC(N)=O)[C@@H](O)[C@H](Oc2ccc3c(O)c(NC(=O)c4ccc(O)c(CC=C(C)C)c4)c(=O)oc3c2C)OC1(C)C [NOVOBIOCIN]
CC50 [1]: 690 µM | inhibition [4]: Active

Ac-DPQTHANRIYRMIKLGLG-NH2
solubility [5]: ≥ 100 µM | CC50 [1]: > 160 µM | inhibition [4]: Active | pIC50 [2]: < 3.80 | pIC50 [3]: 3.63

Ac-DPQTHANRIYRMIKLWLG-NH2
solubility [5]: ≥ 100 µM | CC50 [1]: 18.9 µM | Activity (MDA-kb2): Active

C=CCCC[C@](C)(NC(=O)[C@H](CC(C)C)NC(=O)[C@H](CCCCN)NC(=O)[C@@H](NC(=O)[C@](C)(CCCC=C)NC(=O)[C@H](CCCNC(=N)N)NC(=O)[C@H](Cc1ccc(O)cc1)NC(=O)[C@@H](NC(=O)[C@H](CCCNC(=N)N)NC(=O)[C@H](CC(N)=O)NC(=O)[C@H](C)NC(=O)[C@H](Cc1cnc[nH]1)NC(=O)[C@@H](NC(=O)[C@H](CCC(N)=O)NC(=O)[C@@H]1CCCN1C(=O)[C@H](CC(=O)O)NC(C)=O)[C@@H](C)O)[C@@H](C)CC)[C@@H](C)CC)C(=O)N[C@@H](CC(C)C)C(=O)NCC(N)=O (Ac-DPQTHANRIYR[S5]IKL[S5]LG-NH2)
solubility [5]: ≥ 100 µM | CC50 [1]: 19.1 µM

CC[C@H](C)[C@H](NC(=O)[C@H](CCCNC(=N)N)NC(=O)[C@H](CC(N)=O)NC(=O)[C@H](C)NC(=O)[C@H](Cc1cnc[nH]1)NC(=O)[C@@H](NC(=O)[C@H](CCC(N)=O)NC(=O)[C@@H]1CCCN1C(=O)[C@H](CC(=O)O)NC(C)=O)[C@@H](C)O)C(=O)N[C@@H](Cc1ccc(O)cc1)C(=O)N[C@@H](CCCNC(=N)N)C(=O)N[C@@]1(C)CCC/C=C/CCC[C@@](C)(C(=O)N[C@@H](CC(C)C)C(=O)NCC(N)=O)NC(=O)[C@H](CC(C)C)NC(=O)[C@H](CCCCN)NC(=O)[C@H]([C@@H](C)CC)NC1=O (Ac-DPQTHANRIYR[S5]IKL[S5]LG-NH2; staple (E) 12-16)
solubility [5]: ≥ 100 µM | CC50 [1]: 26.6 µM | pIC50 [2]: 4.73 | pIC50 [3]: 4.42

Ac-DPQTHANRIYRMIKLLLG-NH2
solubility [5]: ≥ 100 µM | CC50 [1]: 22.9 µM | inhibition [4]: Active | pIC50 [2]: 4.73

CC[C@H](C)[C@H](NC(=O)[C@H](CCCNC(=N)N)NC(=O)[C@H](CC(N)=O)NC(=O)[C@H](C)NC(=O)[C@H](Cc1cnc[nH]1)NC(=O)[C@@H](NC(=O)[C@H](CCC(N)=O)NC(=O)[C@@H]1CCCN1C(=O)[C@H](CC(=O)O)NC(C)=O)[C@@H](C)O)C(=O)N[C@@H](Cc1ccc(O)cc1)C(=O)N[C@@H](CCCNC(=N)N)C(=O)N[C@@H](CCSC)C(=O)N[C@H](C(=O)N[C@H]1CCCCNC(=O)C[C@@H](C(N)=O)NC(=O)[C@H](CC(C)C)NC(=O)[C@H](Cc2c[nH]c3ccccc23)NC(=O)[C@H](CC(C)C)NC1=O)[C@@H](C)CC (Ac-DPQTHANRIYRMIKLWLD-NH2; lactam 14-18)
solubility [5]: ≥ 100 µM | CC50 [1]: > 27 µM | pIC50 [2]: < 4.57 | pIC50 [3]: 5.07

Ac-DPQTHANRIWRMIKLGLG-NH2
inhibition [4]: Active

Ac-DPQTFANRIYRMIKLGLG-NH2
inhibition [4]: Active

COC1=C2C[C@@H](C)C[C@H](OC)[C@H](O)[C@@H](C)/C=C(\C)[C@H](OC(N)=O)[C@@H](OC)/C=C\C=C(/C)C(=O)NC(=CC1=O)C2=O [GELDANAMYCIN]
CC50 [1]: > 2 µM

CC[C@H](C)[C@H](NC(=O)[C@H](CCCNC(=N)N)NC(=O)[C@H](CC(N)=O)NC(=O)[C@H](C)NC(=O)[C@H](Cc1cnc[nH]1)NC(=O)[C@@H](NC(=O)[C@H](CCC(N)=O)NC(=O)[C@@H]1CCCN1C(=O)[C@H](CC(=O)O)NC(=O)c1ccc2c(c1)C(=O)OC21c2ccc(O)cc2Oc2cc(O)ccc21)[C@@H](C)O)C(=O)N[C@@H](Cc1c[nH]c2ccccc12)C(=O)N[C@@H](CCCNC(=N)N)C(=O)N[C@@H](CCSC)C(=O)N[C@H](C(=O)N[C@@H](CCCCN)C(=O)N[C@@H](CC(C)C)C(=O)N[C@@H](Cc1c[nH]c2ccccc12)C(=O)N[C@@H](CC(C)C)C(=O)N[C@@H](CC(=O)O)C(N)=O)[C@@H](C)CC (5FAM-DPQTHANRIWRMIKLWLD-NH2)
Activity [6]: inactive

Ac-FQAEIAQLMSLIINTFY-NH2
inhibition [4]: inactive

CC[C@H](C)[C@H](NC(=O)[C@H](CCCNC(=N)N)NC(=O)[C@H](CC(N)=O)NC(=O)[C@H](C)NC(=O)[C@H](Cc1cnc[nH]1)NC(=O)[C@@H](NC(=O)[C@H](CCC(N)=O)NC(=O)[C@@H]1CCCN1C(=O)[C@H](CC(=O)O)NC(C)=O)[C@@H](C)O)C(=O)N[C@@H](Cc1c[nH]c2ccccc12)C(=O)N[C@@H](CCCNC(=N)N)C(=O)N[C@@H](CCSC)C(=O)N[C@H](C(=O)N[C@H]1CCCCNC(=O)C[C@@H](C(N)=O)NC(=O)[C@H](CC(C)C)NC(=O)[C@H](Cc2c[nH]c3ccccc23)NC(=O)[C@H](CC(C)C)NC1=O)[C@@H](C)CC (Ac-DPQTHANRIWRMIKLWLD-NH2; lactam 14-18)
solubility [5]: ≥ 100 µM | CC50 [1]: 1.86 µM | pIC50 [2]: 6.14 | Activity (MDA-kb2): Active | pIC50 [3]: 5.39

CO[C@H]1/C=C\C=C(/C)C(=O)NC2=CC(=O)C(NCCCCCCNC(=S)Nc3ccc(-c4c5ccc(=O)cc-5oc5cc(O)ccc45)c(C(=O)O)c3)=C(C[C@@H](C)C[C@H](OC)[C@H](O)[C@@H](C)/C=C(\C)[C@@H]1OC(N)=O)C2=O
Activity [7]: Active

Ac-DPQTHANRIYRLIKLGLG-NH2
inhibition [4]: Active

Ac-DPQTHANRIYRMIKLGNG-NH2
inhibition [4]: Active

CC[C@H](C)[C@H](NC(=O)[C@H](CCCNC(=N)N)NC(=O)[C@H](CC(N)=O)NC(=O)[C@H](C)NC(=O)[C@H](Cc1cnc[nH]1)NC(=O)[C@@H](NC(=O)[C@H](CCC(N)=O)NC(=O)[C@@H]1CCCN1C(=O)[C@H](CC(=O)O)NC(C)=O)[C@@H](C)O)C(=O)N[C@@H](Cc1ccc(O)cc1)C(=O)N[C@@H](CCCNC(=N)N)C(=O)N[C@H]1CCCCNC(=O)C[C@@H](C(=O)N[C@@H](CC(C)C)C(=O)NCC(N)=O)NC(=O)[C@H](CC(C)C)NC(=O)[C@H](CCCCN)NC(=O)[C@H]([C@@H](C)CC)NC1=O (Ac-DPQTHANRIYRKIKLDLG-NH2; lactam 12-16)
solubility [5]: ≥ 100 µM | CC50 [1]: > 67 µM | pIC50 [2]: < 4.17 | pIC50 [3]: 3.86
